1 molecule from ChEMBL document CHEMBL3638446, “Quinoxaline inhibitors of phosphoinositide-3-kinases (PI3Ks)” (2013) can be followed below.

In the assay the target is Phosphatidylinositol 4,5-bisphosphate 3-kinase catalytic subunit gamma isoform (Homo sapiens, UniProt P48736). Kind of assay: Biological Assay: The assay combines the scintillation proximity assay technology (SPA, Amersham) with the capacity of neomycin (a polycationic antibiotic) to bind phospholipids with high affinity and specificity. The Scintillation Proximity Assay is based on the properties of weakly emitting isotopes (such as 3H, 125I, 33P). Coating SPA beads with neomycin allows the detection of phosphorylated lipid substrates after incubation with recombinant PI3K and radioactive ATP in the same well, by capturing the radioactive phospholipids to the SPA beads through their specific binding to neomycin.
Chain of Phosphatidylinositol 4,5-bisphosphate 3-kinase catalytic subunit gamma isoform (P48736 whole entry, canonical isoform): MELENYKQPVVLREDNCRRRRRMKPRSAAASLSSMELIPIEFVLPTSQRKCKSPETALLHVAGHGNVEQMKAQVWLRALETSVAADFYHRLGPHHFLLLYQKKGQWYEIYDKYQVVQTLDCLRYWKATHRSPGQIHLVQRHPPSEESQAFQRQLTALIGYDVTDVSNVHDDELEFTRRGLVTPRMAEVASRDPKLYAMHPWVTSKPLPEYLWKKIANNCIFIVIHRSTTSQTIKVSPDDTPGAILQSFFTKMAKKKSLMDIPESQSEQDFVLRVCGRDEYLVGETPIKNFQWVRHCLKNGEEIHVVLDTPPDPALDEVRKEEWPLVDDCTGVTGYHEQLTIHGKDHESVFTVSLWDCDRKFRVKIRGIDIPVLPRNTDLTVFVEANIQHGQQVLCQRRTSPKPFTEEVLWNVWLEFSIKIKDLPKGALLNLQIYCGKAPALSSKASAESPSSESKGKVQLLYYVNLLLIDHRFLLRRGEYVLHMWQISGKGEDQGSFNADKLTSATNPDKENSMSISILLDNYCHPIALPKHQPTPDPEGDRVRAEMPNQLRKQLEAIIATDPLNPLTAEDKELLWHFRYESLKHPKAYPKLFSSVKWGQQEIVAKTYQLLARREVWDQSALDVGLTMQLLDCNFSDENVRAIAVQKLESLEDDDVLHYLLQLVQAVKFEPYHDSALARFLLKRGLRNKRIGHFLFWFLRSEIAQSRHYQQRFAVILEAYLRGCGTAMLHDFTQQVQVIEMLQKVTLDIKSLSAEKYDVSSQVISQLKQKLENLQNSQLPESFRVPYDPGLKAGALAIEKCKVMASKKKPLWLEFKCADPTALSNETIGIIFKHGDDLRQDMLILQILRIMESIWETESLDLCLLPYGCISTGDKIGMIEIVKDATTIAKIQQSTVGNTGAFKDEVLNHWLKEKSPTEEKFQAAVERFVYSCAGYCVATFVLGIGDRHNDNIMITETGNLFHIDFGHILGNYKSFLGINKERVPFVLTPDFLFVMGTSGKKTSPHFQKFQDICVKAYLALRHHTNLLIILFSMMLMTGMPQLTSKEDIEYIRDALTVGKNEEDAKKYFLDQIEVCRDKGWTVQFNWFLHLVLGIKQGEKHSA

`COc1ccc(CC2CCOCC2)c(Nc2nc3ccccc3nc2NS(=O)(=O)c2ccc(CN(C)C)cc2)c1`: the IC50 was 30 nM.

What is called IC50 is the concentration needed to halve the response being measured.
